Experimental data taken from patent US9445596B2, “Small molecule compounds for the control of nematodes” (California Institute of Technology, priority 2011, dated 2016).
“Also recorded” adds a separate entry of the source.

Tests used:
[1] = system: P. pacificus; assay: Dauer formation assay; type: in vivo, Pristionchus pacificus; conditions: even at very high concentrations (20 μM)
Protocol: Dauer formation assays were performed as described in Ogawa et al., Curr. Biol. 19:67-71 (2009), which is hereby incorporated by reference in its entirety, using heat- or kanamycin-killed E. coli OP50. Synthetic compounds were dissolved in ethanol (0.5 mM, stock solution) and combined with water to make a […] and subsequently added to 3 mL NGM-agar without peptone ([…], 0.3, 0.1 μM final concentrations).

[2] = system: males; assay: Bioassay of HPLC-purified peak; type: in vivo; conditions: purified peak with retention time of 9.7 minutes
Protocol: A Thermo Finnigan LCQ Deca XP Max was used with electrospray ionization in positive ion mode in the 50-1000 AMU range. The Thermo Separation spectra HPLC system consisted of a P4000 quaternary pump, an AS 3000 auto sampler, and a UV 6000 diode array detector. The solvents were water with (a) 0.1% formic acid and (b) 90% acetonitrile-10% water with 10 mM ammonium formate. The column temperature was maintained at 60° C. and a solvent flow of 1.0 ml/min. The reversed phase column (PLRP-S Polymeric reversed phase column, 250×4.6 mmid, Varian Inc.) was eluted with a solvent composition starting with 90:10 (a,b) for 2 minutes, followed by a gradient to 5:95 in 20 minutes and an additional 5 minutes at 5:95. Ultraviolet absorption was monitored at 190 and 400 nm. Solvent flow between the ultraviolet detector and mass spectroscopy electrospray interface split 9:1 with a low-volume micro needle P450 splitter valve (Upchurch Scientific, Oak Harbor, Wash.), making it possible to obtain spectra of eluted compounds and simultaneously collect 90% of the injected material for bioassay. […] This was confirmed to be ascr#1 using NMR analysis.

[3] = system: P. pacificus strain RSB020; assay: Mouth-form dimorphism assay; type: in vivo, Pristionchus pacificus; conditions: high concentrations
Protocol: Mouth-form dimorphism assays were performed using P. pacificus strain RSB020. The synthetic compounds dissolved in ethanol (0.5 mM) were diluted with water to make 100 μl solution and subsequently added to 3 mL NGM-agar (1 μM final concentration). The assay plates were seeded with 50 μl OP50 culture in LB medium and incubated overnight at 20° C. to allow bacterial growth. Each replicate included the progeny of two mothers, which were picked as adult hermaphrodites of a consistent age (carrying 4-6 eggs) and which were all from the same P. pacificus culture plate. Following the placement of mothers on assay plates, plates were kept at 20° C. for six days, such that the entire broods were adults at the time of screening. A random sample of 50 hermaphrodite progeny was screened per plate. All animals were screened by differential interference contrast (DIC) microscopy on a Zeiss Axiskop. The following discrete characters were used to discriminate eurystomatous from stenostomatous individuals, respectively: (1) claw-shaped vs. flint-shaped (i.e. dorsoventrally symmetrical) dorsal tooth; (2) presence vs. absence of a subventral tooth; (3) strongly vs. weakly sclerotized stomatal walls. No intermediate mouth-forms were observed. Experiments were conducted in triplicate for each treatment. In assays of responses to compounds of several concentrations (1, 0.3, 0.1, 0.03, 0.01 μM final concentrations), experiments were performed as described above, with the following modifications. To allow greater resolution of responses to lower concentrations, 60 randomly screened individuals in each of five replicates per concentration per compound were assayed. All concentration-curve experiments were performed in parallel using mothers picked randomly from the same two source populations. To prepare large numbers of individual mothers for these experiments, source populations were established from virgin hermaphrodites to constrain the presence of males and were conditioned to well-fed and ambient conditions for at least one generation before mothers were picked for the assays.

[4] = system: several of the tested nematode species; assay: Retention assay, several nematode species; type: in vivo; conditions: 1 nM, 1 μM and 1 mM tested
Protocol: (§1) OP50 E. coli was grown on a standard 5 cm agar plate (made with standard Nematode Growth Medium). The bacterial lawn was 16 mm in diameter and was grown overnight at 20° C. before being used in trials. Two 4 mm spots (0.6 μL) were placed on opposite sides of the bacterial lawn (using a transparent template to guide spot placement), and several minutes elapsed for the liquid to settle in before placing nematodes down on the assay. Recording began immediately upon worm placement. 0.6 μL of the control was placed on one side of the lawn, and 0.6 μL of the experimental cue was placed on the other side of the lawn, changing the location of the cue throughout trials between left/right and top/bottom to avoid bias.
Nematodes were isolated by gender at the L4 stage the day before being used in trials as developed adults. Worms were evenly divided and placed at two points equidistant from the foci of the scoring region. Trials were recorded for 20 minutes, and frames were collected for analysis at 1 frame per second. Results were averaged from at least three different trials. For every nematode species in this study, a different total number of worms (using water in both scoring regions) was tested to determine the minimum number of worms necessary for consistent unbiased results over a 20 minute trial. The total number of worms used in the multiple species assays depended on that species' optimal parameters. 10 worms were used for P. redivivus males and females, 20 worms were used for C. elegans males and O. dolichuridae males, and 14 worms were used for S. glaseri males. The Automated Software was used to compare worm occupancy in each scoring region over time, and the Chemotaxis Index (Bargmann et al., Cell 74:515-27 (1993), which is hereby incorporated by reference in its entirety) was adapted to score preference or avoidance to each ascaroside.
A video camera attached to the microscope produced a digital video stream, which was then analyzed. The ratio of the time the average worm spent in each region of interest was calculated for every trial. For ease of implementation, all worms in a single experiment were assumed to be roughly the same size. Thus worm pixels were counted instead of whole worms, allowing fractions of a worm in the region of interest to be taken into account. It also eliminated the need for a shape-based worm identification algorithm, and allowed each frame to be analyzed independently. A band-pass filter was applied to each frame to eliminate the effect of uneven lighting and also accentuate the worms against the background. The worm was then identified after thresholding the filtered image. Throughout each experiment, the locations and sizes of the regions of interest were known. Through the filtering described above, it is known which pixels are occupied by worms and which ones are not. Thus, the ratio of worm-pixels to all pixels inside the region of interest can be calculated to produce the worm-occupancy ratio. This calculation was done for every frame, giving a plot output of worm-occupancy ratio vs. time for each region.

[5] = system: C. elegans; conditions: cited from earlier work
[6] = system: C. elegans; conditions: Srinivasan et al. 2012; cited from earlier work
[7] = system: P. redivivus males and females; assay: Retention assay, P. redivivus; type: in vivo
Protocol: as §1
Nematodes were isolated by gender at the L4 stage the day before being used in trials as developed adults. Worms were evenly divided and placed at two points equidistant from the foci of the scoring region. Trials were recorded for 20 minutes, and frames were collected for analysis at 1 frame per second. Results were averaged from at least three different trials. For every nematode species in this study, a different total number of worms (using water in both scoring regions) was tested to determine the minimum number of worms necessary for consistent unbiased results over a 20 minute trial. The total number of worms used in the multiple species assays depended on that species' optimal parameters. […]
(§2) A video camera attached to the microscope produced a digital video stream, which was then analyzed. The ratio of the time the average worm spent in each region of interest was calculated for every trial. […] Thus worm pixels were counted instead of whole worms, allowing fractions of a worm in the region of interest to be taken into account. It also eliminated the need for a shape-based worm identification algorithm, and allowed each frame to be analyzed independently. […] Thus, the ratio of worm-pixels to all pixels inside the region of interest can be calculated to produce the worm-occupancy ratio. […]

[8] = system: C. elegans; assay: Aggregation assay; type: in vivo
Protocol: Aggregation behavior of worms was measured using assays reported in de Bono & Bargmann, Cell 94:679-89 (1998), which is hereby incorporated by reference in its entirety. Aggregation assays were conducted on standard NGM plates. Plates containing indole ascarosides were made by adding the indole ascaroside stock solution to the NGM media before they were poured onto the plates. These plates were dried at room temperature for 2 to 3 days. Control plates were treated similarly, except that ethanol solutions instead of icas solutions were added to the plates, corresponding to the amount of ethanol introduced via the icas solutions. Final ethanol concentrations of the plates were below 0.1% for all conditions. After drying, both control plates and plates containing indole ascarosides were seeded with 150 μl of an overnight culture of E. coli OP50 using a micropipette, and were allowed to dry for 2 days at room temperature. For “low worm density” experiments, 20 worms were placed onto the lawn and left at 20° C. for 3 hours. For “high worm density” experiments, approximately 120 worms were placed onto the bacterial lawn and left at 20° C. for 3 hours. Aggregation behavior was quantified as the number of animals that were in touch with two or more animals at greater than 50% of their body length.

[9] = system: C. elegans hermaphrodites and males; assay: Spot attraction assay; type: in vivo
Protocol: The spot attraction assays were conducted according to a previously reported method (Pungaliya et al., PNAS 106:7708-13 (2009); Srinivasan et al., Nature 454:1115-18 (2008), which are hereby incorporated by reference in their entirety). For both C. elegans hermaphrodites and males, 50-60 worms were harvested daily at the fourth larval stage (L4) and stored segregatedly by sex at 20° C. overnight, to be used as young adults the following day. For the competition experiments, two conditions were used: 120 nM ascr#3 and 10 nM icas#3 (Condition 1), or 12 μM ascr#3 and 1 μM icas#3 (Condition 2) in water containing 10% ethanol. Aliquots were stored at −20° C. in 20 μL tubes. 10% ethanol in water was used as control.
Attraction assays with hbas#3 were conducted as previously reported (Srinivasan et al., Nature 454:1115-18 (2008); Pungaliya et al., Proc. Natl. Acad. Sci. U.S.A. 106:7708-13 (2009), which are hereby incorporated by reference in their entirety). For the attraction assays, 50-60 hermaphrodite worms were harvested daily at the early fourth larval stage (L4) and stored at 20° C. overnight to be used as young adults the following day. Hbas#3 was dissolved in water containing 10% ethanol. Aliquots were stored at −20° C. in 20 μL tubes. 10% ethanol in water was used as control.

[10] = system: C. elegans males; assay: Retention assay, C. elegans males; type: in vivo
Protocol: as §1, with “0.6 μL of the control was placed on one side of the lawn, and 0.6 μL of the experimental cue was placed on the other side of the lawn, changing the location of the cue throughout trials between left/right and top/bottom to avoid bias.” left out
(§3) Nematodes were isolated by gender at the L4 stage the day before being used in trials as developed adults. […] Trials were recorded for 20 minutes, and frames were collected for analysis at 1 frame per second. […]
as §2

[11] = system: S. glaseri males; assay: Retention assay, S. glaseri males; type: in vivo
Protocol: as §1, with “0.6 μL of the control was placed on one side of the lawn, and 0.6 μL of the experimental cue was placed on the other side of the lawn, changing the location of the cue throughout trials between left/right and top/bottom to avoid bias.” left out
as §3, §2

[12] = Butcher et al., Org. Lett. 2009

SMILES | dauer induction [1] | activity in the bioassay [2] | induction of the eurystomatous mouth form [3] | preference for areas conditioned by the ascaroside [4] | dauer-inducing activity [5, 12] | shape of dauer response curve [5, 12] | promotion of dauer entry ([5]; shown previously) | aggregation in C. elegans [6] | response of P. redivivus females ([7]; females) | response of P. redivivus males ([7]; males) | concentrations at which active as hermaphrodite attractants and aggregation signals ([8]; in vivo) | aggregation of hermaphrodites ([8]; low worm density, solitary and social hermaphrodites) | attraction in the spot attraction assay ([9]; 1 pmol, N2 hermaphrodites and him-5 males) | attraction in the spot attraction assay ([9]; high concentrations, males and hermaphrodites) | attraction of hermaphrodites ([9]; low concentrations, N2 hermaphrodites) | attraction of males ([9]; low concentrations, males) | concentration of conditioned regions preferred (activity threshold) [10] [µM] | concentration of conditioned regions preferred (activity threshold) [11] [mM] | concentration of conditioned regions preferred (activity threshold) ([7]; males) [mM]
C[C@H](CCCCC(=O)O)O[C@@H]1O[C@@H](C)[C@H](O)C[C@H]1O [ascr#1, reference compound] | does not induce dauer formation; also recorded: no dauer-inducing activity | active to males | weaker induction of the eurystomatous mouth form | preferred |  |  |  |  |  |  |  |  |  |  |  |  |  |  | 
C[C@H](CCC(=O)O)O[C@@H]1O[C@@H](C)[C@H](OC(=O)c2c[nH]c3ccccc23)C[C@H]1O [icas#9, reference compound] |  |  |  |  | moderate dauer-inducing activity | bell-shaped response curve | individually promote dauer entry | aggregating stimulant | repeled | elicited no response | femtomolar to picomolar | increased aggregation of both solitary and social hermaphrodites | attractive to both C. elegans sexes | attracted both males and hermaphrodites | strongly attracted | not attracted; also recorded: not males |  |  | 
CC1O[C@@H](O[C@H](C)CCCCCCC(=O)O)C(O)C[C@H]1O (some centres unmarked) [ascr#10] |  |  |  | preferred |  |  |  |  |  |  |  |  |  |  |  |  | 1 | 1 | 1
